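Method: 48-hour compound exposure of cells in 96-well plates, five concentrations, linear interpolation of endpoints. Abbreviation: GI50, concentration required for 50% inhibition of growth.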 Activity calls are given as the source filed them. Cut-off read from the data, not from the text of the source: active = GI50 up to about 1.1 µM and inactive = higher.
What was measured:
Experiment in all cases: DTP human tumour cell line panel, 48 h
A498 = tested on: A498
CAKI-1 = tested on: CAKI-1
SK-MEL-5 = tested on: SK-MEL-5
SF-295 = tested on: SF-295
OVCAR-8 = tested on: OVCAR-8
UACC-257 = tested on: UACC-257
MCF7 = tested on: MCF7
SNB-19 = tested on: SNB-19
IGROV-1 = tested on: IGROV-1
NCI/ADR-RES = tested on: NCI/ADR-RES
NCI-H522 = tested on: NCI-H522
HCT-116 = tested on: HCT-116
U-251 = tested on: U-251
786-0 = tested on: 786-0
OVCAR-4 = tested on: OVCAR-4
RPMI-8226 = tested on: RPMI-8226
HCC 2998 = tested on: HCC 2998
OVCAR-5 = tested on: OVCAR-5
NCI-H460 = tested on: NCI-H460
HT-29 = tested on: HT-29

Cc1ccc(S(=O)(=O)N2CCc3cc(O)c([N+](=O)[O-])cc32)cc1
GI50 (A498): > 100 µM (inactive) | GI50 (CAKI-1): > 100 µM (inactive) | GI50 (SK-MEL-5): > 100 µM (inactive) | GI50 (SF-295): > 100 µM (inactive) | GI50 (OVCAR-8): > 100 µM (inactive) | GI50 (UACC-257): > 100 µM (inactive) | GI50 (MCF7): > 100 µM (inactive) | GI50 (SNB-19): > 100 µM (inactive) | GI50 (IGROV-1): > 100 µM (inactive) | GI50 (NCI/ADR-RES): > 100 µM (inactive) | GI50 (NCI-H522): > 100 µM (inactive) | GI50 (HCT-116): > 100 µM (inactive) | GI50 (U-251): > 100 µM (inactive) | GI50 (786-0): > 100 µM (inactive) | GI50 (OVCAR-4): > 100 µM (inactive)

COc1cc(C2SC(=N)Nc3c2c(C)nn3C(=O)c2ccc(Cl)cc2)cc(OC)c1OC (configuration not stated)
GI50 (CAKI-1): > 10 µM (inactive) | GI50 (RPMI-8226): > 10 µM (inactive) | GI50 (SK-MEL-5): > 10 µM (inactive) | GI50 (SF-295): > 10 µM (inactive) | GI50 (OVCAR-8): > 10 µM (inactive) | GI50 (UACC-257): > 10 µM (inactive) | GI50 (HCC 2998): > 10 µM (inactive) | GI50 (OVCAR-5): > 10 µM (inactive) | GI50 (MCF7): > 10 µM (inactive) | GI50 (NCI-H460): > 10 µM (inactive) | GI50 (SNB-19): > 10 µM (inactive) | GI50 (IGROV-1): > 10 µM (inactive) | GI50 (NCI/ADR-RES): > 10 µM (inactive) | GI50 (NCI-H522): > 10 µM (inactive) | GI50 (HT-29): > 10 µM (inactive) | GI50 (HCT-116): > 10 µM (inactive) | GI50 (U-251): > 10 µM (inactive) | GI50 (786-0): > 10 µM (inactive) | GI50 (OVCAR-4): > 10 µM (inactive)

NS(=O)(=O)c1ccc(CNC(=S)NC(=O)Nc2ccc(Cl)c(Cl)c2)cc1
GI50 (A498): 16.2 µM (inactive) | GI50 (RPMI-8226): 16 µM (inactive) | GI50 (SK-MEL-5): 17.8 µM (inactive) | GI50 (SF-295): 16.3 µM (inactive) | GI50 (OVCAR-8): 20.3 µM (inactive) | GI50 (UACC-257): 32.8 µM (inactive) | GI50 (OVCAR-5): 29 µM (inactive) | GI50 (MCF7): 19.5 µM (inactive) | GI50 (NCI-H460): 25.2 µM (inactive) | GI50 (SNB-19): 19.8 µM (inactive) | GI50 (IGROV-1): 17.9 µM (inactive) | GI50 (NCI/ADR-RES): 19 µM (inactive) | GI50 (NCI-H522): 16 µM (inactive) | GI50 (HT-29): 23.2 µM (inactive) | GI50 (HCT-116): 17.5 µM (inactive) | GI50 (U-251): 11.9 µM (inactive) | GI50 (786-0): 16.8 µM (inactive) | GI50 (OVCAR-4): 31.5 µM (inactive)

Cc1cccc2c1[nH]c1[nH]c(=O)[nH]c(=O)c12
GI50 (A498): > 100 µM (inactive) | GI50 (CAKI-1): > 100 µM (inactive) | GI50 (RPMI-8226): > 100 µM (inactive) | GI50 (SK-MEL-5): > 100 µM (inactive) | GI50 (SF-295): > 100 µM (inactive) | GI50 (OVCAR-8): > 100 µM (inactive) | GI50 (UACC-257): > 100 µM (inactive) | GI50 (OVCAR-5): > 100 µM (inactive) | GI50 (MCF7): > 100 µM (inactive) | GI50 (SNB-19): > 100 µM (inactive) | GI50 (IGROV-1): > 100 µM (inactive) | GI50 (NCI/ADR-RES): > 100 µM (inactive) | GI50 (NCI-H522): > 100 µM (inactive) | GI50 (HT-29): > 100 µM (inactive) | GI50 (HCT-116): > 100 µM (inactive) | GI50 (786-0): > 100 µM (inactive) | GI50 (OVCAR-4): > 100 µM (inactive)

COc1cc(/C=N/NC(=O)c2c(Cl)c(Cl)c(Cl)c(Cl)c2-c2nc3cc(C(=O)c4ccccc4)ccc3[nH]2)ccc1O
GI50 (CAKI-1): 62.2 µM (inactive) | GI50 (RPMI-8226): 30.8 µM (inactive) | GI50 (SK-MEL-5): 20.4 µM (inactive) | GI50 (SF-295): 29.9 µM (inactive) | GI50 (OVCAR-8): 59.3 µM (inactive) | GI50 (UACC-257): 60.8 µM (inactive) | GI50 (OVCAR-5): > 100 µM (inactive) | GI50 (MCF7): 26.5 µM (inactive) | GI50 (SNB-19): 62.1 µM (inactive) | GI50 (IGROV-1): 47.6 µM (inactive) | GI50 (NCI/ADR-RES): 20.9 µM (inactive) | GI50 (NCI-H522): 22.1 µM (inactive) | GI50 (HT-29): 40.1 µM (inactive) | GI50 (HCT-116): 36.1 µM (inactive) | GI50 (U-251): 35.4 µM (inactive) | GI50 (786-0): 37.2 µM (inactive) | GI50 (OVCAR-4): 49.1 µM (inactive)

O=c1[nH]c(NCc2ccncc2)nc2[nH]cnc12
GI50 (CAKI-1): > 100 µM (inactive) | GI50 (RPMI-8226): > 100 µM (inactive) | GI50 (SK-MEL-5): > 100 µM (inactive) | GI50 (SF-295): > 100 µM (inactive) | GI50 (OVCAR-8): > 100 µM (inactive) | GI50 (UACC-257): > 100 µM (inactive) | GI50 (HCC 2998): > 100 µM (inactive) | GI50 (OVCAR-5): > 100 µM (inactive) | GI50 (MCF7): > 100 µM (inactive) | GI50 (NCI-H460): > 100 µM (inactive) | GI50 (SNB-19): > 100 µM (inactive) | GI50 (IGROV-1): > 100 µM (inactive) | GI50 (NCI/ADR-RES): > 100 µM (inactive) | GI50 (NCI-H522): > 100 µM (inactive) | GI50 (HT-29): > 100 µM (inactive) | GI50 (HCT-116): > 100 µM (inactive) | GI50 (U-251): > 100 µM (inactive) | GI50 (786-0): > 100 µM (inactive) | GI50 (OVCAR-4): > 100 µM (inactive)

COc1ccc2c(c1OC)OCC(CN(C)C)C2=O (configuration not stated)
GI50 (CAKI-1): 3.01 µM (inactive) | GI50 (RPMI-8226): 2.42 µM (inactive) | GI50 (SK-MEL-5): 17.7 µM (inactive) | GI50 (SF-295): > 100 µM (inactive) | GI50 (OVCAR-8): 22.1 µM (inactive) | GI50 (UACC-257): 16.7 µM (inactive) | GI50 (HCC 2998): 18.7 µM (inactive) | GI50 (OVCAR-5): 19.1 µM (inactive) | GI50 (MCF7): 8.95 µM (inactive) | GI50 (NCI-H460): > 44.6 µM (inactive) | GI50 (SNB-19): > 100 µM (inactive) | GI50 (IGROV-1): 18.6 µM (inactive) | GI50 (NCI/ADR-RES): 27.7 µM (inactive) | GI50 (NCI-H522): 0.187 µM (active) | GI50 (HT-29): 15.4 µM (inactive) | GI50 (HCT-116): 17.4 µM (inactive) | GI50 (U-251): 18.9 µM (inactive) | GI50 (786-0): 12.6 µM (inactive) | GI50 (OVCAR-4): 22.9 µM (inactive)

COC(=O)[C@@H]1CN(C(=O)c2ccccc2)C(=O)N1
GI50 (A498): > 100 µM (inactive) | GI50 (CAKI-1): > 10 µM (inactive) | GI50 (RPMI-8226): > 100 µM (inactive) | GI50 (SK-MEL-5): > 100 µM (inactive) | GI50 (SF-295): > 100 µM (inactive) | GI50 (OVCAR-8): > 100 µM (inactive) | GI50 (UACC-257): > 100 µM (inactive) | GI50 (OVCAR-5): > 100 µM (inactive) | GI50 (NCI-H460): > 100 µM (inactive) | GI50 (SNB-19): > 100 µM (inactive) | GI50 (IGROV-1): > 100 µM (inactive) | GI50 (NCI/ADR-RES): > 100 µM (inactive) | GI50 (NCI-H522): > 100 µM (inactive) | GI50 (HT-29): > 100 µM (inactive) | GI50 (HCT-116): > 100 µM (inactive) | GI50 (U-251): > 100 µM (inactive) | GI50 (786-0): > 100 µM (inactive) | GI50 (OVCAR-4): > 100 µM (inactive)

Source: ChEMBL document CHEMBL1201862, “PubChem BioAssay data set” (2004)
